The values below come from patent JP2006306850A, “置換ベンズアニリド化合物及び有害生物防除剤” (priority 2005, dated 2006).

Molecules are shown by their SMILES. Where two headings read alike, the source gives them in different places.

What all share (format): in vivo
Common to all, as to details: 144 h, read-out: mortality rate

In test [1] the test system is diamondback moth [コナガ(Plutella xylostella)]. The test can be described thus: 試験例1 コナガに対する殺虫試験 (insecticidal test, 2nd instar larvae).
Test [2] concerns common cutworm [ハスモンヨトウ(Spodoptera litura)]. Briefly: 試験例2 ハスモンヨトウに対する殺虫試験 (insecticidal test, 2nd instar larvae).
For test [3], the system named is oriental tea tortrix [チャハマキ(Homona magnanima)]. Briefly: 試験例3 チャハマキに対する殺虫試験 (insecticidal test, 2nd instar larvae).
For test [4], the system named is cucurbit leaf beetle [ウリハムシ(Aulacophora femoralis)]. Briefly: 試験例4 ウリハムシに対する殺虫試験 (insecticidal test, 2nd instar larvae).
The mark [5] stands for this setting: 100 ppm, leaf dip, 2nd instar, 6 days, 25℃.

`Cc1cc(C(O)(c2ccc(OS(C)(=O)=O)cc2)C(F)(F)F)ccc1NC(=O)c1cccc(I)c1C(=O)NC(C)C` (centres unmarked) [1-015]: the figures for the mortality at 100 ppm in test [1] and in test [2] were 100% and at least 80%, respectively.
For `Cc1cc(C(O)(c2ccc(OC(F)(F)F)cc2)C(F)(F)F)ccc1NC(=O)c1cccc(I)c1C(=O)NC(C)C` (centres unmarked) [1-009], the values for the mortality at 100 ppm in test [1], in test [2] and in test [3] were 100%, at least 80% and at least 80%, respectively. In test [4], the mortality (usually the share of the test organisms that died) at 500 ppm is 100%.
Consider `Cc1cc2c(cc1NC(=O)c1cccc(I)c1C(=O)NC(C)C)OC(F)(F)C2(O)C(F)(F)F` (centres unmarked) [4-002], for which the mortality at 100 ppm in test [1] was 100%; in test [2] it was at least 80%; in test [3], at least 80%. In addition, in test [4], the mortality at 500 ppm was 100%.
`Cc1cc(C(O)(c2ccc(OC(F)(F)Br)cc2)C(F)(F)F)ccc1NC(=O)c1cccc(I)c1C(=O)NC(C)C` (centres unmarked) [1-010]: the results for the mortality at 100 ppm in test [1] (setting [5]), in test [2] (setting [5]) and in test [3] (setting [5]) were 100%, at least 80% and at least 80%, respectively. Also, in test [4] (500 ppm, leaf dip, 2nd instar, 6 days, 25℃), the mortality at 500 ppm was found to be 100%.
Consider `Cc1cc(C(O)(C(F)(F)F)C(F)(F)Oc2ccc(Cl)cc2)ccc1NC(=O)c1cccc(I)c1C(=O)NC(C)C` (centres unmarked) [2-008], for which the mortality at 100 ppm in test [1] is 100%; in test [2], at least 80%; in test [3] it was at least 80%. Also, the mortality at 500 ppm in test [4] is 100%.
Regarding `COC(c1ccc(Cl)cc1)(c1ccc(NC(=O)c2cccc(I)c2C(=O)NC(C)C)c(C)c1)C(F)(F)F` (centres unmarked) [3-002], the figures for the mortality at 100 ppm in test [1], in test [2] and in test [3] were 100%, at least 80% and at least 80%, respectively.
With `Cc1cc(C(O)(c2ccc3c(c2)OC(F)(F)C(F)(F)O3)C(F)(F)F)ccc1NC(=O)c1cccc(I)c1C(=O)NC(C)C` (centres unmarked) [1-028], the mortality at 100 ppm in test [1] was 100%; in test [2], at least 80%; in test [3], at least 80%. Moreover, the mortality at 500 ppm in test [4] was 100%.
Take `Cc1cc(C(O)(COc2ccc(Cl)cc2)C(F)(F)F)ccc1NC(=O)c1cccc(I)c1C(=O)NC(C)C` (centres unmarked) [2-004]: the mortality at 100 ppm in test [1] was 100%; in test [2] it was at least 80%. For the same molecule, in test [4], the mortality at 500 ppm was 100%.
`Cc1cc(C(O)(C=Cc2ccc(Cl)cc2)C(F)(F)F)ccc1NC(=O)c1cccc(I)c1C(=O)NC(C)C` (centres unmarked) [2-018]: the mortality at 100 ppm in test [1] is 100%; in test [2] it was at least 80%; in test [3], at least 80%. In addition, in test [4], the mortality at 500 ppm is 100%.
For `Cc1cc(C(C)(O)c2ccc(C(F)(F)F)cn2)ccc1NC(=O)c1cccc(I)c1C(=O)NC(C)C` (centres unmarked) [2-001], the mortality at 100 ppm in test [1] is 100%; in test [2], at least 80%. Also, the mortality at 500 ppm in test [4] worked out at 100%.
